Laboratory results published in PubChem BioAssay AID2771 (The Scripps Research Institute Molecular Screening Center, 2010).
Active and inactive are the calls of the source. No rule for the calls is given here.

Target: Signal transducer and activator of transcription 3 (Homo sapiens) (UniProt P40763)
Assay: reduction of STAT3-responsive reporter signal – cell-based, luminescence, dose response, counter-screen for STAT1 inhibitor project, late-stage follow-up (AID 2771)
Settings: STAT3-responsive luciferase reporter cells

Row | Structure (SMILES) | IC50
1 | COc1cc2c(cc1OC)C(=O)N(Cc1nnc(-c3ccc(Cl)cc3)o1)C(=CN1CCOCC1)N2 | > 55.7 µM (inactive)
2 | O=C1c2ccccc2N/C(=C\N2CCOCC2)N1Cc1nc(-c2ccc(F)c(F)c2)cs1 | > 18.6 µM (inactive)
3 | CN(C)Cc1nc2ccccc2c(=O)n1Cc1nc(C(C)(C)C)cs1 | > 55.7 µM (inactive)
4 | O=C(c1ccc(-n2c(=S)[nH]c3ccccc3c2=O)cc1)N1CCN(c2ccc(F)cc2)CC1 | > 55.7 µM (inactive)
5 | CCOC(=O)N1CCN(C(=O)c2ccc(-n3c(=S)[nH]c4ccccc4c3=O)cc2)CC1 | > 55.7 µM (inactive)
6 | CCOc1ccc2oc(=O)cc(CSc3nc4ccccc4c(=O)[nH]3)c2c1 | > 55.7 µM (inactive)
7 | Cc1ccc2oc(=O)cc(CSc3nc(-c4ccccc4)c4ccccc4n3)c2c1 | > 55.7 µM (inactive)
8 | COC(=O)c1nn(-c2ccc(F)cc2)c(=O)c2ccccc12 | > 55.7 µM (inactive)
9 | CN1CCN(Cc2nc3ccccc3c(=O)n2Cc2nc(-c3ccccc3F)cs2)CC1 | > 55.7 µM (inactive)
10 | COc1cc2c(cc1OC)C(=O)N(Cc1cc(-c3ccccc3OC)no1)C(=CN1CCOCC1)N2 | inactive
11 | CCOc1ccc(-c2csc(Cn3c(CN4CCN(C)CC4)nc4ccccc4c3=O)n2)cc1 | > 55.7 µM (inactive)
12 | O=c1cc(CSc2nc3ccccc3c(=O)[nH]2)c2ccc(O)cc2o1 | > 55.7 µM (inactive)
13 | CN(C)C(=O)c1nn(-c2ccc(F)cc2)c(=O)c2ccccc12 | > 55.7 µM (inactive)
14 | CCOC(=O)Nc1ccc2c(CSc3nc4ccccc4c(=O)[nH]3)cc(=O)oc2c1 | > 55.7 µM (inactive)
15 | Cc1ccc(-n2nc(C(=O)O)c3ccccc3c2=O)cc1C | > 55.7 µM (inactive)
16 | CNC(=O)c1nn(-c2ccc(F)cc2)c(=O)c2ccccc12 | > 55.7 µM (inactive)
17 | CN1CCN(C(=O)c2ccc(-n3c(=S)[nH]c4ccccc4c3=O)cc2)CC1 | > 55.7 µM (inactive)
18 | CN1CCN(Cc2nc3ccccc3c(=O)n2Cc2nc(-c3cccc([N+](=O)[O-])c3)cs2)CC1 | > 55.7 µM (inactive)

Row | Structure (SMILES) | IC50
19 | O=C(c1ccc(-n2c(=S)[nH]c3ccccc3c2=O)cc1)N1CCN(C(=O)c2ccco2)CC1 | > 55.7 µM (inactive)
20 | COc1cc2c(cc1OC)C(=O)N(Cc1coc(-c3ccccc3)n1)C(=CN1CCOCC1)N2 | > 55.7 µM (inactive)
21 | O=C(OCC1CCCCC1)c1nn(-c2ccccc2)c(=O)c2ccccc12 | > 55.7 µM (inactive)
22 | O=C(c1ccc(-n2c(=S)[nH]c3ccccc3c2=O)cc1)N1CCN(C2CCCCC2)CC1 | > 55.7 µM (inactive)
23 | O=c1c2ccccc2nc(CN2CCOCC2)n1Cc1nc(-c2ccc[nH]2)cs1 | > 55.7 µM (inactive)
24 | CN(C)Cc1nc2ccccc2c(=O)n1Cc1nc(-c2cccc([N+](=O)[O-])c2)cs1 | > 55.7 µM (inactive)
25 | CN1CCN(C=C2Nc3ccccc3C(=O)N2Cc2nc(C34CC5CC(CC(C5)C3)C4)cs2)CC1 | > 55.7 µM (inactive)
26 | O=C(c1ccc(-n2c(=S)[nH]c3ccccc3c2=O)cc1)N1CCN(c2ccccc2)CC1 | > 55.7 µM (inactive)
27 | C=C1NN(c2ccc(C(=O)N3CCC(Cc4ccccc4)CC3)cc2)C(=O)c2ccccc21 | inactive
28 | Cc1ccc(-n2nc(C(=O)O)c3ccccc3c2=O)cc1Cl | > 55.7 µM (inactive)
29 | CC(C(=O)Nc1ccc(F)c(F)c1)N1CCN(S(=O)(=O)c2ccc(C(F)(F)F)cc2)CC1 (centres undefined) | > 18.6 µM (inactive)
30 | CN(Cc1ccccc1N1CCCC1)C(=O)c1nn(-c2ccccc2)c(=O)c2ccccc12 | > 55.7 µM (inactive)
31 | CCC(C)c1ccc(-c2csc(CN3C(=O)c4ccccc4N/C3=C\N3CCN(C)CC3)n2)cc1 (centres undefined) | > 55.7 µM (inactive)
32 | COc1ccc(N2CCN(C(=O)c3ccc(-n4c(=S)[nH]c5ccccc5c4=O)cc3)CC2)cc1 | > 55.7 µM (inactive)
33 | COc1cccc(-c2csc(Cn3c(CN4CCOCC4)nc4ccccc4c3=O)n2)c1 | > 55.7 µM (inactive)
34 | O=C(O)c1nn(-c2ccc(F)cc2)c(=O)c2ccccc12 | > 55.7 µM (inactive)
35 | Cc1cc2oc(=O)cc(CSc3nc4ccccc4c(=O)[nH]3)c2cc1Cl | > 55.7 µM (inactive)
36 | O=C1c2ccccc2N/C(=C\N2CCOCC2)N1Cc1nc(-c2ccccc2F)cs1 | > 55.7 µM (inactive)

The next lines start with the values.

Row | IC50 | Structure (SMILES)
37 | > 55.7 µM (inactive) | N#Cc1ccccc1S(=O)(=O)N1CCN(C(C(=O)Nc2ccc(F)cc2)c2ccccc2)CC1 (centres undefined)
38 | > 55.7 µM (inactive) | O=C(Nc1ccc(F)cc1)C(c1ccccc1)N1CCN(S(=O)(=O)c2ccccc2)CC1 (centres undefined)
39 | > 55.7 µM (inactive) | Cc1ccc(C)c(S(=O)(=O)N2CCN(C(C(=O)Nc3ccc(F)cc3)c3ccccc3)CC2)c1 (centres undefined)
40 | > 55.7 µM (inactive) | CC(=O)c1ccc(S(=O)(=O)N2CCN(C(C(=O)Nc3ccc(C)cc3)c3ccccc3)CC2)cc1 (centres undefined)
41 | > 55.7 µM (inactive) | CC(C(=O)Nc1ccccc1)N1CCN(S(=O)(=O)c2ccccc2)CC1 (centres undefined)
42 | > 55.7 µM (inactive) | COc1cccc(NC(=O)C(c2ccccc2)N2CCN(S(=O)(=O)c3ccc(C)cc3)CC2)c1 (centres undefined)
43 | > 55.7 µM (inactive) | O=C(Nc1ccc(F)cc1)C(c1ccccc1)N1CCN(S(=O)(=O)c2ccc3c(c2)OCCO3)CC1 (centres undefined)
44 | > 55.7 µM (inactive) | O=C(Nc1ccc(F)cc1)C(c1ccccc1)N1CCN(S(=O)(=O)c2ccc3ccccc3c2)CC1 (centres undefined)
45 | > 55.7 µM (inactive) | Cc1ccc(NC(=O)C(c2ccccc2)N2CCN(S(=O)(=O)c3ccccc3)CC2)cc1 (centres undefined)
46 | > 55.7 µM (inactive) | CCC(C(=O)Nc1ccccc1)N1CCN(S(=O)(=O)c2ccc3c(c2)CCC3)CC1 (centres undefined)
47 | > 55.7 µM (inactive) | NC(=O)c1ccc(S(=O)(=O)N2CCN(C(C(=O)Nc3ccc(F)cc3)c3ccccc3)CC2)cc1 (centres undefined)
48 | > 55.7 µM (inactive) | O=C(Nc1ccc(Cl)c(C(F)(F)F)c1)C(c1ccccc1)N1CCN(S(=O)(=O)c2ccccc2)CC1 (centres undefined)
49 | > 55.7 µM (inactive) | CCOc1ccccc1NC(=O)C(c1ccccc1)N1CCN(S(=O)(=O)c2ccc(F)c(F)c2F)CC1 (centres undefined)
50 | > 55.7 µM (inactive) | N#Cc1ccc(S(=O)(=O)N2CCN(C(C(=O)Nc3ccc(F)cc3)c3ccccc3)CC2)cc1 (centres undefined)
51 | > 55.7 µM (inactive) | Cc1ccc(C)c(NC(=O)C(c2ccccc2)N2CCN(S(=O)(=O)c3ccccc3C#N)CC2)c1 (centres undefined)
52 | > 55.7 µM (inactive) | COc1ccc(C)cc1NC(=O)C(c1ccccc1)N1CCN(S(=O)(=O)c2ccc(F)cc2)CC1 (centres undefined)
53 | > 55.7 µM (inactive) | CCOC(=O)c1ccc(S(=O)(=O)N2CCN(C(C(=O)Nc3ccc(OC)c(Cl)c3)c3ccccc3)CC2)cc1 (centres undefined)
54 | > 55.7 µM (inactive) | O=C(Nc1ccc(F)cc1)C(c1ccccc1)N1CCN(C(=O)c2ccccc2)CC1 (centres undefined)
